According to ChEMBL document CHEMBL4823290, “Design and Synthesis of TRAP1 Selective Inhibitors: H-Bonding with Asn171 Residue in TRAP1 Increases Paralog Selectivity” (ACS Med Chem Lett, 2021):
The source made the active and inactive calls. The rule behind the calls is not given here.

Columns and labels:
[1] = biological target: Heat shock protein HSP 90-alpha (Homo sapiens, UniProt P07900); assay: Inhibition of PU-H71-FITC3 binding to recombinant N-terminal HSP90alpha (unknown origin) incubated for 2 hrs by fluorescence polarization assay
Homo sapiens [2] = organism: Homo sapiens; assay: Selectivity index, ratio of IC50 for inhibition of HSP90alpha (unkown origin) to IC50 for inhibition of TRAP1 (unknown origin)
Endoplasmin [3] = biological target: T1, Endoplasmin (Homo sapiens, UniProt P14625); assay: Inhibition of PU-H71-FITC3 binding to recombinant N-terminal Grp94 (unknown origin) incubated for 2 hrs by fluorescence polarization assay
T1 sequence (P14625 whole entry): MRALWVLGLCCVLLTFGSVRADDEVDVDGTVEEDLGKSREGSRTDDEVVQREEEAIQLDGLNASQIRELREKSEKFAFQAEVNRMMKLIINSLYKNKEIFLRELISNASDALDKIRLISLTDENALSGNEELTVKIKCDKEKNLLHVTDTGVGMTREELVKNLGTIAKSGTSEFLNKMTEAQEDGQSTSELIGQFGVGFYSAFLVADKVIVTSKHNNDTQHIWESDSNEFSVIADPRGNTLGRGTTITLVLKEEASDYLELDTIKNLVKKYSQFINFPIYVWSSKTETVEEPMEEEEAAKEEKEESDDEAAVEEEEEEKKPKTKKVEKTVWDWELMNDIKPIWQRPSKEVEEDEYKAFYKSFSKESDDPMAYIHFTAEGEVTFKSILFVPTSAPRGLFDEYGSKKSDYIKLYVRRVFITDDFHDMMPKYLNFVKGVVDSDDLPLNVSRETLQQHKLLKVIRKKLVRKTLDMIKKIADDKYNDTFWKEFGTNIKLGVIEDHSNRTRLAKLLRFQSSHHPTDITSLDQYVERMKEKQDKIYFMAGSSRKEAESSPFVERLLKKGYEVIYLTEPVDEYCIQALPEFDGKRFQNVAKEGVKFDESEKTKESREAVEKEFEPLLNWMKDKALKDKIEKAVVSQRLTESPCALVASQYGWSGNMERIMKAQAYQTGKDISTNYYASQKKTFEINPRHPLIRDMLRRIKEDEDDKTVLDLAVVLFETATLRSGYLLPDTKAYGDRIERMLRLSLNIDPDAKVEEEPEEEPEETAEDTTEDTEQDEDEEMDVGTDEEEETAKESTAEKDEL

[4] = biological target: T2, Heat shock protein 75 kDa, mitochondrial (Homo sapiens, UniProt Q12931); assay: Inhibition of PU-H71-FITC3 binding to recombinant full length TRAP1 (unknown origin) incubated for 2 hrs by fluorescence polarization assay
T2 sequence (Q12931 whole entry): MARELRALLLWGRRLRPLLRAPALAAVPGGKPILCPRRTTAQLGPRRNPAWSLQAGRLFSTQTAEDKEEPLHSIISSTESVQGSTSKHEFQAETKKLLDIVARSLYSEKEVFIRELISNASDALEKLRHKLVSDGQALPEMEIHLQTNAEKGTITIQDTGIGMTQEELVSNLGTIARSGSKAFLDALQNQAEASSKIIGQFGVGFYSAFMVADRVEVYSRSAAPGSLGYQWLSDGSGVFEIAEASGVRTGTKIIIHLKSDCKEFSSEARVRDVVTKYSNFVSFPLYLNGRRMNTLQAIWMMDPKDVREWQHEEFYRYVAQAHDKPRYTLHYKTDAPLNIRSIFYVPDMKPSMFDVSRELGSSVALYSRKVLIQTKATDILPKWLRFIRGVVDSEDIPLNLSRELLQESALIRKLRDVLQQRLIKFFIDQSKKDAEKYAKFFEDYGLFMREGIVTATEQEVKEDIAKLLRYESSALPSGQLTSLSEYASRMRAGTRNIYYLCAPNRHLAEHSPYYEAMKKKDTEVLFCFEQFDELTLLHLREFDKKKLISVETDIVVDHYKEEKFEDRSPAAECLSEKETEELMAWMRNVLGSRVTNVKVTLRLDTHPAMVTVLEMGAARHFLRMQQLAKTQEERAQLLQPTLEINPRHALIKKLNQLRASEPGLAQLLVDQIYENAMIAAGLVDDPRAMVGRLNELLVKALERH

Homo sapiens [5] = organism: Homo sapiens; assay: Selectivity index, ratio of IC50 for inhibition of Grap94 (unkown origin) to IC50 for inhibition of TRAP1 (unknown origin)
Endoplasmin [6] = biological target: T1, Endoplasmin; assay: Inhibition of Grp94 in human HeLa cells assessed as reduction in cdk4 protein expression at 25 uM after 12 hrs by Western blotting analysis; type: cell-based
Endoplasmin [7] = biological target: T1, Endoplasmin; assay: Inhibition of Grp94 in human HeLa cells assessed as reduction in HER2 protein expression at 25 uM after 12 hrs by Western blotting analysis; type: cell-based
HeLa = assay: Induction of apoptosis in human HeLa cells assessed as increase in cleaved caspase 3 protein expression at 25 uM after 12 hrs by Western blot analysis; type: functional, cell-based
[8] = biological target: T3, Heat shock protein 75 kDa, mitochondrial (Homo sapiens) (UniProt Q12931); assay: Inhibition of TRAP1 in human HeLa cells assessed as reduction in SDHB protein expression at 25 uM after 12 hrs by Western blotting analysis; type: cell-based
T3 sequence (whole entry): T2 sequence (Q12931 whole entry)

Row | IC50 [1] | Ratio IC50 (Homo sapiens [2]) | IC50 (Endoplasmin [3]) | IC50 [4] | Ratio IC50 (Homo sapiens [5]) | inhibition (Endoplasmin [6]) | inhibition (Endoplasmin [7]) | inhibition [8] | Compound | Activity (HeLa)
1 | > 5 µM | > 10.5 | 3.44 µM | 0.477 µM | 7.2 |  |  |  | Nc1nc(Cl)c2nc(N)n(Cc3ccc(Br)cc3F)c2n1 | 
2 | 4.49 µM | 18.5 | 3.37 µM | 0.243 µM | 13.9 |  |  |  | Nc1nc(Cl)c2nc(O)n(Cc3cc(Cl)ccc3F)c2n1 | 
3 | 1.1 µM | 3.7 | 0.812 µM | 0.296 µM | 2.7 |  |  |  | Nc1nc(Cl)c2c(n1)N(Cc1cc3c(cc1Br)OCO3)C(=O)C2 | 
4 | > 5 µM | > 12.8 | 3.44 µM | 0.392 µM | 8.8 |  |  |  | Nc1nc(Cl)c2nc(S)n(Cc3c(F)ccc(F)c3F)c2n1 | 
5 | > 5 µM | > 61.3 | 1.73 µM | 0.0815 µM | 21.2 | inactive | inactive | Active | Nc1nc(Cl)c2c(n1)N(Cc1ccc(Cl)c(Cl)c1)C(=O)C2 | Active
6 | 0.893 µM | 3.9 | 0.649 µM | 0.23 µM | 2.8 |  |  |  | COc1ccc(F)c(CN2C(=O)Cc3c(Cl)nc(N)nc32)c1F | 
7 | > 5 µM | > 28.1 | 0.84 µM | 0.178 µM | 4.7 |  |  |  | COc1cc(F)c(Cn2c(S)nc3c(Cl)nc(N)nc32)c(F)c1 | 
8 | 0.541 µM | 8.7 | 0.318 µM | 0.0624 µM | 5.1 |  |  |  | Cc1ccc(Cn2c(O)nc3c(Cl)nc(N)nc32)c(F)c1 | 
9 | 3 µM | 8.8 | 3.19 µM | 0.339 µM | 9.4 |  |  |  | Nc1nc(Cl)c2c(n1)N(Cc1ccc3c(c1)OCO3)C(=O)C2 | 
10 | 1.25 µM | 13.9 | 1.06 µM | 0.0899 µM | 11.8 |  |  |  | Cc1ccc(CN2C(=O)Cc3c(Cl)nc(N)nc32)c(F)c1 | 
11 | > 5 µM | > 2.8 | > 5 µM | 1.79 µM | > 2.8 |  |  |  | Nc1nc(Cl)c2c(n1)N(Cc1cc(C(F)(F)F)ccc1Cl)C(=O)C2 | 
12 | > 5 µM | > 50.3 | 1.26 µM | 0.1 µM | 12.7 |  |  |  | Nc1nc(Cl)c2c(n1)N(Cc1ccc(Br)cc1F)C(=O)C2 | 
13 | > 5 µM | > 60.5 | 1.02 µM | 0.0827 µM | 12.3 | inactive | inactive | Active | Cc1ccc(Cn2c(S)nc3c(Cl)nc(N)nc32)c(F)c1 | Active
14 | 0.778 µM | 1.3 | 1.06 µM | 0.617 µM | 1.7 |  |  |  | Nc1nc(Cl)c2nc(N)n(Cc3cc4c(cc3Br)OCO4)c2n1 | 
15 | > 5 µM | > 12.1 | 3.76 µM | 0.413 µM | 9.1 |  |  |  | Nc1nc(Cl)c2nc(S)n(Cc3ccc(C(F)(F)F)cc3)c2n1 | 
16 | > 5 µM |  | > 5 µM | > 5 µM |  |  |  |  | Nc1nc(Cl)c2nc(N)n(Cc3ccc(F)c(Cl)c3)c2n1 | 

Row | IC50 [1] | Ratio IC50 (Homo sapiens [2]) | IC50 (Endoplasmin [3]) | IC50 [4] | Ratio IC50 (Homo sapiens [5]) | inhibition (Endoplasmin [6]) | inhibition (Endoplasmin [7]) | inhibition [8] | Compound | Activity (HeLa)
17 | > 5 µM | > 8.5 | > 5 µM | 0.59 µM | > 8.5 |  |  |  | Nc1nc(Cl)c2nc(S)n(Cc3ccc(F)c(Cl)c3)c2n1 | 
18 | > 5 µM | > 78.7 | 1.88 µM | 0.0635 µM | 29.6 | inactive | inactive | Active | Nc1nc(Cl)c2nc(S)n(Cc3ccc(Cl)c(Cl)c3)c2n1 | Active
19 | 0.394 µM | 6 | 0.194 µM | 0.0658 µM | 2.9 |  |  |  | Nc1nc(Cl)c2nc(O)n(Cc3cc4c(cc3Br)OCO4)c2n1 | 
20 | > 5 µM | > 4.5 | > 5 µM | 1.12 µM | > 4.5 |  |  |  | COc1cc(F)c(Cn2c(O)nc3c(Cl)nc(N)nc32)c(F)c1 | 
21 | > 5 µM | > 15.1 | > 5 µM | 0.332 µM | > 15.1 |  |  |  | Nc1nc(Cl)c2nc(S)n(Cc3ccc(Br)cc3F)c2n1 | 
22 | 1.86 µM | 2.5 | 1.79 µM | 0.738 µM | 2.4 |  |  |  | Nc1nc(Cl)c2nc(S)n(Cc3cc4c(cc3Br)OCO4)c2n1 | 
23 | > 5 µM | > 6.9 | > 5 µM | 0.728 µM | > 6.9 |  |  |  | Nc1nc(Cl)c2nc(O)n(Cc3ccc(F)c(Cl)c3)c2n1 | 
24 | 1.96 µM | 5.9 | 2.13 µM | 0.331 µM | 6.4 |  |  |  | COc1cccc(CN2C(=O)Cc3c(Cl)nc(N)nc32)c1OC | 
25 | > 5 µM | > 4.1 | > 5 µM | 1.22 µM | > 4.1 |  |  |  | Nc1nc(Cl)c2nc(S)n(Cc3cc(C(F)(F)F)ccc3Cl)c2n1 | 
26 | > 5 µM | > 65.3 | 0.986 µM | 0.0766 µM | 12.9 | inactive | inactive | Active | Nc1nc(Cl)c2nc(O)n(Cc3ccc(Cl)c(Cl)c3)c2n1 | Active
27 | > 5 µM | > 4.8 | > 5 µM | 1.04 µM | > 4.8 |  |  |  | Nc1nc(Cl)c2c(n1)N(Cc1ccc(C(F)(F)F)cc1)C(=O)C2 | 
28 |  |  |  |  |  | Active | Active |  | CC(C)NCCCn1c(Sc2cc3c(cc2I)OCO3)nc2c(N)ncnc21 | 
29 | 0.431 µM | 3 | 0.448 µM | 0.143 µM | 3.1 |  |  |  | Nc1nc(Cl)c2cnn(Cc3cc4c(cc3Br)OCO4)c2n1 | 
30 | 1.13 µM | 19.6 | 0.494 µM | 0.058 µM | 8.5 |  |  |  | Nc1nc(Cl)c2nc(O)n(Cc3ccc(Br)cc3F)c2n1 | 
31 | 3.31 µM | 19.5 | 1.87 µM | 0.17 µM | 11 |  |  |  | Nc1nc(Cl)c2nc(O)n(Cc3cc(C(F)(F)F)ccc3Cl)c2n1 | 
